Assay [1] addresses T1, human SIRT3 (Homo sapiens, UniProt Q9NTG7).
T1 construct: pET151D/Topo (Sirt3-114-380 and Sirt5-34-302); His tag (N, cleaved yes); made in house; host or cells: Escherichia coli
T1 sequence (Q9NTG7 114-380): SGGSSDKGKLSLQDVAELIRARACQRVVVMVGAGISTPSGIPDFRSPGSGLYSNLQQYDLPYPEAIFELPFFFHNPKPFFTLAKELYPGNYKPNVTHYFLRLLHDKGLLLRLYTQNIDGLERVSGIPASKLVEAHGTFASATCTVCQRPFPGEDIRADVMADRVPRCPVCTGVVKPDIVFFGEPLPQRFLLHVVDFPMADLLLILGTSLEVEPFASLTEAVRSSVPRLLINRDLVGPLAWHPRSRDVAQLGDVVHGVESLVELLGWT
In words: Surface plasmon resonance binding assay, immobilized SIRT3. The note with it: SPR, Scatchard analysis, analytes 5-80 μM. Here is the method:
Next, surface plasmon resonance (SPR) experiments were conducted with selected SIRT3 activators 2e and 3a–d to ascertain their biophysical interaction with the human SIRT3 protein. Their parental compounds 2 and 3, together with honokiol, were used as positive controls. The experiments were carried out twice at different concentrations (5, 10, 20, 40, and 80 μM), by injecting the compounds at increasing doses (Figure 5). The resonance units (RU) increase with respect to baseline indicates the formation of the SIRT3/ligand complex, the plateau region represents the steady-state phase of the interaction (RUeq, RU at equilibrium) and the decrease in RU after 180 s represents dissociation of analytes from the immobilized SIRT3 protein after injection of the buffer.
SPR experiments were carried out using a SensiQ Pioneer system (SensiQ, Oklahoma City, OK, USA), essentially as in Genovese et al. 2020[84] and in Battista et al. 2021,[85] with some modifications, as follows.
The sensor chip (COOH5) was chemically activated by a 35 μL injection of a 1:1 mixture of […] (200 mM) and N-hydroxysuccinimide (50 mM) at a flow rate of 5 μL/min. Sirtuin3 (ligand) was immobilized on activated sensor chips via amine coupling. Immobilization was carried out in 20 mM sodium acetate at pH 4.0; unreacted groups were blocked by injecting 1 M ethanolamine hydrochloride (35 μL). Sirtuin3 immobilization level obtained was 1500–4000 RU.
The analytes, dissolved in 100% DMSO at 10 mM concentration, were diluted in buffer 20 mM Hepes, 150 mM NaCl, 0.005% surfactant P20 buffer (HBSP) to a concentration of 200 μM (2% final DMSO concentration), further diluted in HBSP + 2% DMSO (HBSP2%D) and injected on the sensor chip at a constant flow rate (nominal flow rate = 30 μL/min) at the following concentrations: 5, 10, 20, 40, and 80 μM.
The RU increase relative to baseline indicates complex formation (taking place at known analytes concentrations at each moment in the gradient); the plateau region represents the steady-state phase of the interaction (RUeq); and the decrease in RU after 180 s represents dissociation of analytes from the immobilized Sirtiun3 after injection of HBSP2%D. Regeneration procedures are based on two long (2000 and 500 s) injections of buffer, separated by a brief (5 s) injection of 10 mM NaOH.
Control experiments were performed in sensor chips treated as described above in the absence of an immobilized ligand. Kinetic evaluation of the sensorgrams was obtained using the SensiQ Qdat program and full fitting with 1, 2, and 3 sites; Scatchard analysis was used to determine apparent KD values.
(SPR reads the build-up and loss of mass on a sensor chip optically.)

The test system of assay [2] is GDH activity in MDA-MB-231 cells. Put plainly: GDH activity assay in lysates of treated MDA-MB-231 cells. The assay is classed as cell-based, human. The note with it: 50 μM, 4 h. Here is the method: Selected compounds 3a–d were tested in triple-negative breast cancer MDA-MB-231 cells to evaluate their effects on SIRT3 physiological substrates. First, the effect on the activity of GDH (an established SIRT3 substrate activated through deacetylation[60]−[62]) was investigated by a coupled enzyme assay. […] These effects of SIRT3 activators clearly phenocopied those observed in the SIRT3-overexpressing MDA-MB-231 cells (SIRT3^+) (Figure 6).
GDH activity in cells treated or not with the SIRT3 activators 3a–d and the reference compounds 2 and 3 was measured using a GDH activity assay kit (MAK099, Merck) following the manufacturer’s instructions. Briefly, 10^6 cells were lysed in 40 μL of GDH assay buffer and kept for 10 min in ice. Afterward, lysates were centrifuged to collect supernatants. Ten microliters of supernatant were added to 40 μL of GDH buffer and 100 μL of a mix containing GDH assay buffer, developer, and glutamate. The whole mix was transferred into a 96-well plate and incubated at 37 °C for 3 min. Finally, absorbance was read at 450 nm using a GloMax multi detection system (Promega, Milan, Italy). The absorbance of the assay buffer was subtracted from each experimental sample.

In assay [3] the test system is HIF-1α, EPAS-1, and CA-IX protein expression in CAL-62. Put plainly: Western blot of HIF-1α, EPAS-1 and CA-IX in CAL-62 cells under hypoxia. The class given is cell-based. Here is the method: (§1) Based on these findings, we decided to assess the ability of the SIRT3 activators 3a–d to impair HIF-1α, EPAS-1, and CA-IX protein expression in CAL-62 (Figure 10A–F) and MDA-MB-231 (Figure 11A–F) cell lines treated with the compounds at 50 μM for 48 h and under hypoxia conditions.
(§2) Breast cancer cell line MDA-MB-231, anaplastic thyroid cancer cell line CAL-62 and human keratinocytes HaCaT were purchased from ATCC and were cultured in RPMI 1640 medium (R0883 Sigma Aldrich-MERCK) (MDA-MB-231 and CAL-62) or DMEM medium (11965092, Gibco) supplemented with 10% fetal bovine serum (Sigma-Aldrich-MERCK, F9665), 2 mM glutamine (G7513; Sigma-Aldrich-MERCK), 100 units/mL penicillin and 0.1 mg/mL streptomycin (P0781; Sigma-Aldrich-MERCK). Adherent cells were detached by Trypsin–EDTA solution (TA049; Sigma-Aldrich-MERCK). Cells were maintained at 37 °C in humidified incubator with 5% CO2. Cells were treated with […] (CoCl2) (Merck; C8661) dissolved in distilled, sterile water for 24 h to induce hypoxia (200 μM). Hypoxic and normoxic cells were also treated with 10/50 μM of the indicated compounds (dissolved in DMSO) for 48 h, maintaining the CoCl2 in the culture medium for hypoxic conditions. SIRT3 inhibitor 3-TYP was dissolved in DMSO and added to a final concentration of 1 μM for 24 and/or 48 h.
(§3) The following antibodies were used in this study: ACTB (Merck; A5316), HIF1-α (Cell Signaling; 14179), HIF2/EPAS-1 (Santa Cruz Biotechnology sc-13596), HXKII (Santa Cruz Biotechnology sc-6521), CAIX (Novus Biotechnology NB100-417), SIRT3 (Cell Signaling; 2627S), MnSOD (Abcam ab13533), MnSOD K68 (Abcam ab137037), MnSOD K122 (Abcam ab214675), peroxidase-conjugated AffiniPure Goat Anti-Rabbit IgG (H + L) (Jackson ImmunoResearch; 111-035-003), and peroxidase-conjugated AffiniPure Goat Anti-Mouse IgG (H + L) (Jackson ImmunoResearch; 115-035-062).
(§4) Treated and untreated cells were collected and centrifuged at 3000 rpm for 5 min. After removing the supernatant, cells were lysed in 70 μL of lysis buffer containing: 50 mM Tris-Cl (Merck; 93352), 250 mM sodium chloride (NaCl, Merck; S7653), 5 mM ethylenediaminetetraacetic acid (EDTA; Merck; E6758), 0.1% Triton X-100 and 0.1 mM dithiothreitol (Merck; D9163) plus 1 mM phenylmethylsulfonyl fluoride (PMSF, Merck; 93482), protease inhibitor cocktail (PI; Merck; P8340), 1 mM sodium orthovanadate (NA3VO4, Merck; S6508), and 10 mM sodium fluoride (NaF, Merck; 201154) (lysis buffer). After 30 min on ice, samples were centrifuged at 13,000 rpm for 10 min at 4 °C, and the supernatants collected. Protein concentration was determined by the Bradford assay (Bio-Rad; 500-0205). The equivalent of 15 or 50 μg of protein was boiled for 5 min, electrophoresed onto denaturing SDS-PAGE gel, and transferred onto a […] nitrocellulose membrane (Bio-Rad; 162-0115). After blocking with 5% milk, membranes were incubated with the appropriate primary antibody overnight. The next day, after three washes with 0.1% Tween 20 (Merck; P9416) in PBS (PBST) for 30 min at rt, membranes were incubated with the appropriate secondary antibody for 1 h at rt. After three more washes in PBST, the detection of the relevant protein was assessed by enhanced chemiluminescence (Lite Ablot TURBO, Euro-Clone; EMP012001). Densitometric analysis of the bands, relative to ACTB, was performed using ImageJ Software v1.51 (NIH, Bethesda, MD, USA).
(In general: A western blot detects proteins with antibodies after separation by electrophoresis.)

For assay [4], the target named is T1, human SIRT3. Further details: method as in PMID 36228194. The note with it: 100 μM; cited from earlier work.
Assay [5] relates to acK68- and acK122-MnSOD in CAL-62 cells. In words: Western blot of MnSOD acK68 and acK122 marks in CAL-62 cells. The note with it: CAL-62, negative control SIRT3 inhibitor. The class given is cell-based. As to the method: (§5) K68-MnSOD acetylation promotes a transformation-permissive phenotype, leading to a chemotherapy-resistant breast cancer cell model using cisplatin and doxorubicin.[68] […] The specific SIRT3 inhibitor 3-TYP was utilized as negative control.
as §2, with “Hypoxic and normoxic cells were also treated with 10/50 μM of the indicated compounds (dissolved in DMSO) for 48 h, maintaining the CoCl2 in the culture medium for hypoxic conditions. SIRT3 inhibitor 3-TYP was dissolved in DMSO and added to a final concentration of 1 μM for 24 and/or 48 h.” left out
(§6) Treated and untreated cells were collected and centrifuged at 3000 rpm for 5 min. […] Protein concentration was determined by the Bradford assay (Bio-Rad; 500-0205). […] After three more washes in PBST, the detection of the relevant protein was assessed by enhanced chemiluminescence (Lite Ablot TURBO, Euro-Clone; EMP012001). […]

Assay [6] concerns acK68- and acK122-MnSOD in MDA-MB-231 cells. In words: Western blot of MnSOD acK68 and acK122 marks in MDA-MB-231 cells. The note with it: MDA-MB-231, negative control SIRT3 inhibitor. The assay is classed as cell-based, human. Here is the method:
as §5
as §2, with “Hypoxic and normoxic cells were also treated with 10/50 μM of the indicated compounds (dissolved in DMSO) for 48 h, maintaining the CoCl2 in the culture medium for hypoxic conditions. SIRT3 inhibitor 3-TYP was dissolved in DMSO and added to a final concentration of 1 μM for 24 and/or 48 h.” left out
as §3, §6

Assay [7] has as its system HIF-1α, EPAS-1, and CA-IX protein expression in MDA-MB-231. Put plainly: Western blot of HIF-1α, EPAS-1 and CA-IX in MDA-MB-231 cells under hypoxia. The class given is cell-based, human. The note with it: MDA-MB-231, hypoxia, negative control SIRT3 inhibitor. As to the method:
as §1, §2, §3, §4

Consider four molecules from publication PMC10388363, “Novel 1,4-Dihydropyridines as Specific Binders and Activators of SIRT3 Impair Cell Viability and Clonogenicity and Downregulate Hypoxia-Induced Targets in Cancer Cells” (Journal of Medicinal Chemistry, 2023).

Structures are written as SMILES.

At human SIRT3 [1], `C=CCc1ccc(O)c(-c2ccc(O)c(CC=C)c2)c1` [honokiol] had a Kd of 40 to 47 µM.

Take `CCOC(=O)C1=CN(C(=O)c2ccc(OC)cc2)C=C(C(=O)OCC)C1c1ccccc1` [Compound 3b, Diethyl 1-(4-methoxybenzoyl)-4-phenyl-1,4-dihydropyridine-3,5-dicarboxylate]: in assay [2], the “effect on GDH activity in cell lysates” value is reported as “negligible effect”. In addition, in assay [3] (CAL-62, 50 μM, 48 h, hypoxia), the CA-IX protein expression entry is recorded as “significantly downregulated”.

As to `CCOC(=O)C1=CN(C(=O)c2cc(OC)c(OC)c(OC)c2)C=C(C(=O)OCC)C1c1ccccc1` [Compound 3], in assay [2], the GDH activation entry was “around 175%”. This molecule also returned a dissociation constant Kd at human SIRT3 [1] of 40 to 47 µM. For the same molecule, on human SIRT3 [4], the SIRT3 activation result was “over 400%”.

As to `c1cncc(-c2cnn[nH]2)c1` [3-TYP, reference compound], the “acetylation levels of both K68 and K122 residues of MnSOD” value in assay [5] and in assay [6] was “markedly increased” in each case. Moreover, the “HIF-1α, EPAS-1, and CA-IX protein expression” value was “did not show any activity” in assay [7] and “negligible effects” in assay [3] (CAL-62, hypoxia, negative control SIRT3 inhibitor).

A word on the Kd: it is the free concentration of one partner at which half of the binding sites on the other are occupied at equilibrium, for simple one-to-one binding.
